Columns and labels:
Format in all cases: in vivo
Spodoptera littoralis = test: Example B7: Spodoptera littoralis (Egyptian cotton leaf worm), cotton leaf discs sprayed, L1 larvae; settings: foliar, 72 h, application rate of 200 ppm, 3 days after infestation, read-out: control in at least one of the three categories (mortality, anti-feedant effect, or growth inhibition)
Method: Example B7: Spodoptera littoralis (Egyptian Cotton Leaf Worm)
Cotton leaf discs were placed onto agar in 24-well microtiter plates and sprayed with aqueous test solutions prepared from 10′000 ppm DMSO stock solutions. After drying the leaf discs were infested with five L1 larvae. The samples were assessed for mortality, anti-feeding effect, and growth inhibition in comparison to untreated samples 3 days after infestation. Control of Spodoptera littoralis by a test sample is given when at least one of the categories mortality, anti-feedant effect, and growth inhibition is higher than the untreated sample.

Plutella xylostella [1] = test: Example B4: Plutella xylostella (diamond back moth), artificial diet, 24-well, eggs; settings: 192 h, application rate of 200 ppm, 8 days after infestation, 24-well plates, read-out: control in at least one of the two categories (mortality or growth inhibition)
Method: Example B4: Plutella xylostella (Diamond Back Moth)
24-well microtiter plates with artificial diet were treated with aqueous test solutions prepared from 10′000 ppm DMSO stock solutions by pipetting. After drying, Plutella eggs were pipetted through a plastic stencil onto a gel blotting paper and the plate was closed with it. The samples were assessed for mortality and growth inhibition in comparison to untreated samples 8 days after infestation. The following compounds gave an effect of at least 80% control in at least one of the two categories (mortality or growth inhibition) at an application rate of 200 ppm: […]

Plutella xylostella [2] = test: Example B10: Plutella xylostella (diamondback moth), artificial diet, 96-well, eggs; settings: 216 h, application rate of 500 ppm, 9 days after infestation, 96-well plates
Method: Example B10: Plutella xylostella (Diamondback Moth)
96-well microtiter plates containing artificial diet were treated with aqueous test solutions, prepared from 10′000 ppm DMSO stock solutions, by a liquid handling robot. After drying, eggs (˜30 per well) were infested onto a netted lid which was suspended above the diet. The eggs hatch and L1 larvae move down to the diet. The samples were assessed for mortality 9 days after infestation.
The following compounds gave an effect of at least 80% average mortality at an application rate of 500 ppm: […]

Chilo suppressalis = test: Example B3: Chilo suppressalis (striped rice stem borer), artificial diet, L2 larvae; settings: 144 h, application rate of 200 ppm, 6 days after infestation, read-out: control in at least one of the three categories (mortality, anti-feedant effect, or growth inhibition)
Method: Example B3: Chilo suppressalis (Striped Rice Stem Borer)
24-well microtiter plates with artificial diet were treated with aqueous test solutions prepared from 10′000 ppm DMSO stock solutions by pipetting. After drying, the plates were infested with L2 larvae (6-8 per well). The samples were assessed for mortality, anti-feeding effect, and growth inhibition in comparison to untreated samples 6 days after infestation. Control of Chilo suppressalis by a test sample is given when at least one of the categories mortality, anti-feedant effect, and growth inhibition is higher than the untreated sample.

Diabrotica balteata = test: Example B1: Diabrotica balteata (corn root worm), maize sprouts sprayed, L2 larvae; settings: 96 h, application rate of 200 ppm, 4 days after infestation, read-out: control in at least one of the two categories (mortality or growth inhibition)
Method: Example B1: Diabrotica balteata (Corn Root Worm)
Maize sprouts placed onto an agar layer in 24-well microtiter plates were treated with aqueous test solutions prepared from 10′000 ppm DMSO stock solutions by spraying. After drying, the plates were infested with L2 larvae (6 to 10 per well). The samples were assessed for mortality and growth inhibition in comparison to untreated samples 4 days after infestation.
The following compounds gave an effect of at least 80% control in at least one of the two categories (mortality or growth inhibition) at an application rate of 200 ppm: […]

CC(NC(=O)c1cc(Br)cc(OC(F)F)c1)c1ncnn1-c1ccc(C#N)cn1 (stereo not shown) [Compound F1, 3-bromo-N-[1-[2-(5-cyano-2-pyridyl)-1,2,4-triazol-3-yl]ethyl]-5-( ) difluoromethoxy benzamide]
≥ 80%: percent control (mortality, anti-feedant effect or growth inhibition) at 200 ppm (Spodoptera littoralis) | percent control (mortality or growth inhibition) at 200 ppm (Plutella xylostella [1]) | mortality at 500 ppm (Plutella xylostella [2]) | percent control (mortality, anti-feedant effect or growth inhibition) at 200 ppm (Chilo suppressalis) | percent control (mortality or growth inhibition) at 200 ppm (Diabrotica balteata)

CC(NC(=O)c1cc(C(F)(F)F)cc(C(F)(F)F)c1)c1ncnn1-c1ccc(C#N)cn1 (stereo not shown) [Compound F3, N-[1-[2-(5-cyano-2-pyridyl)-1,2,4-triazol-3-yl]ethyl]-3,5-bis(trifluoromethyl) benzamide]
≥ 80%: percent control (mortality, anti-feedant effect or growth inhibition) at 200 ppm (Spodoptera littoralis) | percent control (mortality or growth inhibition) at 200 ppm (Plutella xylostella [1]) | mortality at 500 ppm (Plutella xylostella [2]) | percent control (mortality, anti-feedant effect or growth inhibition) at 200 ppm (Chilo suppressalis) | percent control (mortality or growth inhibition) at 200 ppm (Diabrotica balteata)

CC(NC(=O)c1cc(SC(F)(F)F)cc(C(F)(F)F)c1)c1ncnn1-c1ccc(C#N)cn1 (stereo not shown) [Compound F5, N-[1-[2-(5-cyano-2-pyridyl)-1,2,4-triazol-3-yl]ethyl]-3-(trifluoromethyl)-5-(trifluoromethylsulfanyl) benzamide]
≥ 80%: percent control (mortality, anti-feedant effect or growth inhibition) at 200 ppm (Spodoptera littoralis) | percent control (mortality or growth inhibition) at 200 ppm (Plutella xylostella [1]) | mortality at 500 ppm (Plutella xylostella [2]) | percent control (mortality, anti-feedant effect or growth inhibition) at 200 ppm (Chilo suppressalis) | percent control (mortality or growth inhibition) at 200 ppm (Diabrotica balteata)

Cc1nc(C(C)NC(=O)c2cc(C(F)(F)F)cc(C(F)(F)F)c2)n(-c2ccc(C#N)cn2)n1 (stereo not shown) [Compound F7, N-[1-[2-(5-cyano-2-pyridyl)-5-methyl-1,2,4-triazol-3-yl]ethyl]-3,5-bis (trifluoromethyl) benzamide]
≥ 80%: percent control (mortality, anti-feedant effect or growth inhibition) at 200 ppm (Spodoptera littoralis) | percent control (mortality or growth inhibition) at 200 ppm (Plutella xylostella [1]) | percent control (mortality or growth inhibition) at 200 ppm (Diabrotica balteata)

CC(NC(=O)c1cc(C(F)(F)F)cc(C(F)(F)F)c1)c1nc(C2CC2)nn1-c1ccc(C#N)cn1 (stereo not shown) [Compound F10, N-[1-[2-(5-cyano-2-pyridyl)-5-cyclopropyl-1,2,4-triazol-3-yl]ethyl]-3,5-bis(trifluoromethyl) benzamide]
≥ 80%: percent control (mortality, anti-feedant effect or growth inhibition) at 200 ppm (Spodoptera littoralis) | percent control (mortality or growth inhibition) at 200 ppm (Plutella xylostella [1]) | mortality at 500 ppm (Plutella xylostella [2]) | percent control (mortality, anti-feedant effect or growth inhibition) at 200 ppm (Chilo suppressalis) | percent control (mortality or growth inhibition) at 200 ppm (Diabrotica balteata)

CC(NC(=O)c1cc(Br)cc(C(F)(F)F)c1)c1nc(C2CC2)nn1-c1ccc(C#N)cn1 (stereo not shown) [Compound F11, 3-bromo-N-[1-[2-(5-cyano-2-pyridyl)-5-cyclopropyl-1,2,4-triazol-3-yl]ethyl]-5-(trifluoromethyl) benzamide]
≥ 80%: percent control (mortality or growth inhibition) at 200 ppm (Plutella xylostella [1]) | mortality at 500 ppm (Plutella xylostella [2]) | percent control (mortality, anti-feedant effect or growth inhibition) at 200 ppm (Chilo suppressalis) | percent control (mortality or growth inhibition) at 200 ppm (Diabrotica balteata)

CC(NC(=O)c1cc(OC(F)F)cc(C(F)(F)F)c1)c1ncnn1-c1ccc(C#N)cn1 (stereo not shown) [Compound F13, N-[1-[2-(5-cyano-2-pyridyl)-1,2,4-triazol-3-yl]ethyl]-3-(difluoromethoxy)-5-(trifluoromethyl) benzamide]
≥ 80%: percent control (mortality, anti-feedant effect or growth inhibition) at 200 ppm (Spodoptera littoralis) | percent control (mortality or growth inhibition) at 200 ppm (Plutella xylostella [1]) | percent control (mortality or growth inhibition) at 200 ppm (Diabrotica balteata)

CC(NC(=O)c1cc(Br)cc(C(F)(F)F)c1)c1ncnn1-c1ccc(C#N)cn1 (stereo not shown) [Compound F14, 3-bromo-N-[1-[2-(5-cyano-2-pyridyl)-1,2,4-triazol-3-yl]ethyl]-5-(trifluoromethyl) benzamide]
≥ 80%: percent control (mortality, anti-feedant effect or growth inhibition) at 200 ppm (Spodoptera littoralis) | percent control (mortality or growth inhibition) at 200 ppm (Plutella xylostella [1]) | percent control (mortality or growth inhibition) at 200 ppm (Diabrotica balteata)

CC(NC(=O)c1cc(C(F)F)cc(C(F)(F)F)c1)c1ncnn1-c1ccc(C#N)cn1 (stereo not shown) [Compound F15, N-[1-[2-(5-cyano-2-pyridyl)-1,2,4-triazol-3-yl]ethyl]-3-(difluoromethyl)-5-(trifluoromethyl) benzamide]
≥ 80%: percent control (mortality, anti-feedant effect or growth inhibition) at 200 ppm (Spodoptera littoralis) | percent control (mortality or growth inhibition) at 200 ppm (Plutella xylostella [1]) | percent control (mortality, anti-feedant effect or growth inhibition) at 200 ppm (Chilo suppressalis) | percent control (mortality or growth inhibition) at 200 ppm (Diabrotica balteata)

CC(NC(=O)c1cc(OC(F)(F)F)cc(C(F)(F)F)c1)c1ncnn1-c1ccc(C#N)cn1 (stereo not shown) [Compound F17, N-[1-[2-(5-cyano-2-pyridyl)-1,2,4-triazol-3-yl]ethyl]-3-(trifluoromethoxy)-5-(trifluoromethyl) benzamide]
≥ 80%: percent control (mortality, anti-feedant effect or growth inhibition) at 200 ppm (Spodoptera littoralis) | percent control (mortality or growth inhibition) at 200 ppm (Plutella xylostella [1]) | mortality at 500 ppm (Plutella xylostella [2]) | percent control (mortality, anti-feedant effect or growth inhibition) at 200 ppm (Chilo suppressalis) | percent control (mortality or growth inhibition) at 200 ppm (Diabrotica balteata)

CC(NC(=O)c1cc(OCC(F)F)cc(C(F)(F)F)c1)c1ncnn1-c1ccc(C#N)cn1 (stereo not shown) [Compound F18, N-[1-[2-(5-cyano-2-pyridyl)-1,2,4-triazol-3-yl]ethyl]-3-(2,2-difluoroethoxy)-5-(trifluoromethyl) benzamide]
≥ 80%: percent control (mortality, anti-feedant effect or growth inhibition) at 200 ppm (Spodoptera littoralis) | percent control (mortality or growth inhibition) at 200 ppm (Plutella xylostella [1]) | mortality at 500 ppm (Plutella xylostella [2]) | percent control (mortality, anti-feedant effect or growth inhibition) at 200 ppm (Chilo suppressalis) | percent control (mortality or growth inhibition) at 200 ppm (Diabrotica balteata)

CC(NC(=O)c1cc(Br)cc(OCC(F)(F)F)c1)c1ncnn1-c1ccc(C#N)cn1 (stereo not shown) [Compound F19, 3-bromo-N-[1-[2-(5-cyano-2-pyridyl)-1,2,4-triazol-3-yl]ethyl]-5-(2,2,2-trifluoroethoxy) benzamide]
≥ 80%: percent control (mortality, anti-feedant effect or growth inhibition) at 200 ppm (Spodoptera littoralis) | percent control (mortality or growth inhibition) at 200 ppm (Plutella xylostella [1]) | mortality at 500 ppm (Plutella xylostella [2]) | percent control (mortality, anti-feedant effect or growth inhibition) at 200 ppm (Chilo suppressalis)

CC(NC(=O)c1cc(Br)cc(OCC(F)F)c1)c1ncnn1-c1ccc(C#N)cn1 (stereo not shown) [Compound F20, 3-bromo-N-[1-[2-(5-cyano-2-pyridyl)-1,2,4-triazol-3-yl]ethyl]-5-(2,2-difluoroethoxy) benzamide]
≥ 80%: percent control (mortality, anti-feedant effect or growth inhibition) at 200 ppm (Spodoptera littoralis) | percent control (mortality or growth inhibition) at 200 ppm (Plutella xylostella [1]) | mortality at 500 ppm (Plutella xylostella [2]) | percent control (mortality, anti-feedant effect or growth inhibition) at 200 ppm (Chilo suppressalis)

CC(NC(=O)c1cc(OCC(F)(F)F)cc(C(F)(F)F)c1)c1ncnn1-c1ccc(C#N)cn1 (stereo not shown) [Compound F21, N-[1-[2-(5-cyano-2-pyridyl)-1,2,4-triazol-3-yl]ethyl]-3-(2,2,2-trifluoroethoxy)-5-(trifluoromethyl) benzamide]
≥ 80%: percent control (mortality, anti-feedant effect or growth inhibition) at 200 ppm (Spodoptera littoralis) | percent control (mortality or growth inhibition) at 200 ppm (Plutella xylostella [1]) | mortality at 500 ppm (Plutella xylostella [2]) | percent control (mortality, anti-feedant effect or growth inhibition) at 200 ppm (Chilo suppressalis) | percent control (mortality or growth inhibition) at 200 ppm (Diabrotica balteata)

CC(NC(=O)c1cc(Cl)cc(Cl)c1)c1ncnn1-c1ccc(C#N)cn1 (stereo not shown) [Compound F22, 3,5-dichloro-N-[1-[2-(5-cyano-2-pyridyl)-1,2,4-triazol-3-yl]ethyl]benzamide]
≥ 80%: percent control (mortality, anti-feedant effect or growth inhibition) at 200 ppm (Spodoptera littoralis) | percent control (mortality or growth inhibition) at 200 ppm (Plutella xylostella [1]) | percent control (mortality, anti-feedant effect or growth inhibition) at 200 ppm (Chilo suppressalis) | percent control (mortality or growth inhibition) at 200 ppm (Diabrotica balteata)

CC(NC(=O)c1cc(Cl)cc(Br)c1)c1ncnn1-c1ccc(C#N)cn1 (stereo not shown) [Compound F23, 3-bromo-5-chloro-N-[1-[2-(5-cyano-2-pyridyl)-1,2,4-triazol-3-yl]ethyl]benzamide]
≥ 80%: percent control (mortality, anti-feedant effect or growth inhibition) at 200 ppm (Spodoptera littoralis) | percent control (mortality or growth inhibition) at 200 ppm (Plutella xylostella [1]) | percent control (mortality or growth inhibition) at 200 ppm (Diabrotica balteata)
